Data set [1] concerns purified rat peritoneal mast cells. Briefly: Histamine secretion from intact mast cells incubated with peptide alone (secretagogue side effect). The note with it: for Secretagogue (histamine secretion following incubation of mast cell with different concentrations of each peptide): no allergen; for histamine secretion from mast cells on incubation with increasing concentrations of peptide alone: no additional allergen.

Data set [2] has the same test system. It counts as cell-based. To be noted: for maximal inhibition of compound 48/80 induced histamine secretion: 600 μg/ml peptide, compound 48/80 concentration not given; for Inhibitor (extent of inhibition of histamine secretion from mast cells): Table 9. On the procedure: 37° C. […] Each data point represents the average of duplicate measurements. The spontaneously released histamine was subtracted.
First, the effect of compound 48/80 on exocytosis from intact mast cells was determined. […] Histamine release was determined and is presented as the net secretion that is % of the total cellular histamine following subtraction of the spontaneously released histamine. Half-maximal release was obtained at 0.1 μg/ml while maximal release was obtained at 1-10 μg/ml. Accordingly, in order to analyze the potential of each peptide to block histamine secretion, histamine secretion was induced with 5 μg/ml compound 48/80, a concentration that induces a maximal histamine release, while the cells were incubated in the presence of increasing concentrations of each peptide.
In order to investigate the ability of these peptides to block allergen-induced exocytosis, the peptides were examined for their ability to block compound 48/80 induced histamine secretion from intact mast cells in vitro. Mast cells were incubated with different concentrations of each peptide, followed by induction of histamine secretion by compound 48/80.

Data set [3] concerns abdominal skin of C.R rats. Briefly: Rat skin test: intradermal injection of peptide, then intradermal compound 48/80 or vehicle, wheal area. It counts as in vivo. The note with it: for Mean Wheal Area ± STD, Compound 48/80: 0.5 hour before allergic induction; for Mean Wheal Area ± STD, Vehicle: 0.5 hour before, vehicle instead of compound 48/80. On the procedure:
The hair of the abdominal area of C.R rats was carefully removed with an electric clipper and a depilatory cream. In each animal the abdominal area was divided to six equal zones that were marked by pen. Each zone was either subjected to peptide treatment or served as a control. In the first set of experiments, the peptide was topically applied as follows: 36 μl of peptide solution at the indicated concentration (dissolved in 72% DMSO in saline) was applied on desired abdominal area. In the second set of experiments, the peptide was injected intradermally as follows: 20 μl of peptide solution at different concentrations (dissolved in 10% DMSO in saline) was injected intradermally to an indicated abdominal area using a 27-gauge sterile needle.
Skin tests were performed 0.5, 1 or 2 hours following application of the peptide. Skin tests were performed by injecting intradermally 20 μl of the allergen (0.1 mg/ml compound 48/80 dissolved in saline) or saline alone, into the center of each marked area on the abdominal skin using a 27-gauge sterile needle. The allergic response was monitored by outlining with a marker the wheals which developed in response to allergen or saline treatment.
To quantitate the skin test results, the marker signs were transferred onto paper with scotch tape. The areas of the wheals were outlined and calculated by a computerized planimeter (Hewlett-Packard), as previously described (Sussman et al., 1982).
Tables 10-16 presents the mean areas of the wheals, which developed in response to intradermal injection of each of the tested peptides, followed by either compound 48/80 or DDW injection applied after 0.5 or 1 hour. Two doses were tested for each peptide-20 and 200 μg (injection of 20 μl from a stock solution of 1 mg/ml or 10 mg/m respectively).
Skin tests on rats using compound 48/80 as the allergen assessed the ability of the peptides of the present invention to block allergic cutaneous reactions. The abdominal skin of the rats was subjected to peptide (indicated concentrations are listed in Tables 17A-17B below) or vehicle treatment (intradermal injection); the allergic response was induced by intradermal injection of compound 48/80 at various times; and the allergic response was quantified by calculating the area of the resultant allergic wheals.

Setting [4] is: incubation with different concentrations of each peptide, then induction of the allergic reaction.

16 molecules from patent US20070009544A1, “Anti-allergic complex molecules” (priority 1999, published 2007) can be followed below.

Converted amounts (≈) assume the structure as drawn. Numbered stars: 1 amine (or outer) side, 2 acyl side, 3 side chain; on linkers, the order of the positions; unused ones are H or OH. Square brackets hold non-standard residues; d marks the D form. Ends that are not written are not given here. Peptide text beside a SMILES is read from it. Suc = O=C(CCC(=O)[*:2])[*:1]; Sar = CNCC(=O)O

`CC(C)C[C@H](NC(=O)CNC(=O)[C@H](CS)NC(=O)[C@H](CC(=O)O)NC(=O)[C@H](CCCCN)NC(=O)[C@H](CC(C)C)NC(=O)[C@H](CC(N)=O)NC(=O)[C@H](CCC(=O)O)NC(=O)[C@H](CCCCN)NC(=O)[C@@H]1CCCN1C(=O)[C@H](C)NC(=O)[C@H](CC(C)C)NC(=O)[C@H](CC(C)C)NC(=O)[C@H](C)NC(=O)[C@H](CC(C)C)NC(=O)[C@H](CC(C)C)NC(=O)[C@@H](NC(=O)[C@H](C)NC(=O)[C@@H]1CCCN1C(=O)[C@H](CC(C)C)NC(=O)[C@H](CC(C)C)NC(=O)[C@H](C)NC(=O)[C@@H](NC(=O)[C@H](C)NC(=O)[C@H](C)NC(=O)CCC(=O)O)C(C)C)C(C)C)C(=O)N[C@@H](Cc1ccccc1)C(=O)O` [Peptide 5-Suc] (Suc-AAVALLPAVLLALLAPKENLKDCGLF-OH; C-terminus assumed): in data set [1] (Table 1, peptide alone), the “Secretagogue (histamine secretion following incubation of mast cell with different concentrations of each peptide)” value is “+”. Also, in data set [1], the “histamine secretion from mast cells on incubation with increasing concentrations of peptide alone” value is on record as “induced histamine secretion from mast cells in a concentration dependent manner”. For the same molecule, the “Inhibitor (degree of inhibition of histamine secretion from mast cells)” value in data set [2] (Table 1, incubation with different concentrations of each peptide, then induction of the allergic reaction) was “− (− No inhibition)”.

As for `CC(C)C[C@H](NC(=O)CNC(=O)[C@H](CS)NC(=O)[C@H](CCC(=O)O)NC(=O)[C@H](CCCCN)NC(=O)[C@H](CC(C)C)NC(=O)[C@H](CC(N)=O)NC(=O)[C@H](CC(N)=O)NC(=O)[C@H](CCCCN)NC(=O)CN(C)C(=O)[C@H](C)NC(=O)[C@H](CC(C)C)NC(=O)[C@H](CC(C)C)NC(=O)[C@H](C)NC(=O)[C@H](CC(C)C)NC(=O)[C@H](CC(C)C)NC(=O)[C@@H](NC(=O)[C@H](C)NC(=O)[C@@H]1CCCN1C(=O)[C@H](CC(C)C)NC(=O)[C@H](CC(C)C)NC(=O)[C@H](C)NC(=O)[C@@H](NC(=O)[C@H](C)NC(=O)[C@H](C)NC(=O)CCC(=O)O)C(C)C)C(C)C)C(=O)N[C@@H](Cc1ccc(O)cc1)C(=O)O` [WALL008] (Suc-AAVALLPAVLLALLA[Sar]KNNLKECGLY-OH; C-terminus assumed), the “Secretagogue (histamine secretion following incubation of mast cell with different concentrations of each peptide)” value in data set [1] (Table 9, peptide alone) is reported as “−”. Further, the “histamine secretion from mast cells on incubation with increasing concentrations of peptide alone” value in data set [1] is given as “did not result in histamine secretion”. Moreover, in data set [1] (peptide alone, increasing concentrations), the “basal level of histamine secretion compared to control cells” value is “inhibition of the basal level of histamine secretion”. Moreover, the “block of compound 48/80 induced allergic reaction in vivo, rat skin” value in data set [3] (intradermal peptide) is “effectively block the allergic response in vivo”. In data set [3] (intradermal peptide 1 mg/ml), the “Mean Wheal Area ± STD, Compound 48/80” value is listed as 104.1 ± 18.5 (n = 4) mm^2 and the “Mean Wheal Area ± STD, Vehicle” value is on record as 79.9 ± 22.3 (n = 4) mm^2. For the same molecule, in data set [3] (intradermal peptide 10 mg/ml), the “Mean Wheal Area ± STD, Compound 48/80” value is 73.7 ± 12.2 (n = 4) mm^2 and the “Mean Wheal Area ± STD, Vehicle” value was 72.8 ± 13.6 (n = 4) mm^2. The “reduction of compound 48/80 induced allergic reaction” value in data set [3] (intradermal peptide 0.5 hour before allergic induction) is “significant inhibition”. Further, in data set [2], the “IC50, compound 48/80 induced histamine secretion” value worked out at 220 µg/mL (≈ 79.9 µM) and the “maximal inhibition of compound 48/80 induced histamine secretion” value was determined as 98.7%. The “Inhibitor (extent of inhibition of histamine secretion from mast cells)” value in data set [2] (setting [4]) is listed as “+++ (+++ Potent inhibitor (≧80% inhibition))”.

`CC(C)C[C@H](NC(=O)CNC(=O)[C@H](CS)NC(=O)[C@H](CCC(=O)O)NC(=O)[C@H](CCCCN)NC(=O)[C@H](CC(C)C)NC(=O)[C@H](CC(N)=O)NC(=O)[C@H](CO)NC(=O)[C@H](CCCCN)NC(=O)[C@@H]1CCCN1C(=O)[C@H](C)NC(=O)[C@H](CC(C)C)NC(=O)[C@H](CC(C)C)NC(=O)[C@H](C)NC(=O)[C@H](CC(C)C)NC(=O)[C@H](CC(C)C)NC(=O)[C@@H](NC(=O)[C@H](C)NC(=O)[C@@H]1CCCN1C(=O)[C@H](CC(C)C)NC(=O)[C@H](CC(C)C)NC(=O)[C@H](C)NC(=O)[C@@H](NC(=O)[C@H](C)NC(=O)[C@H](C)NC(=O)CCC(=O)O)C(C)C)C(C)C)C(=O)N[C@@H](Cc1ccc(O)cc1)C(=O)O` [WALL011] (Suc-AAVALLPAVLLALLAPKSNLKECGLY-OH; C-terminus assumed): in data set [1] (Table 9, peptide alone), the “Secretagogue (histamine secretion following incubation of mast cell with different concentrations of each peptide)” value is listed as “−”. Also, in data set [1], the “histamine secretion from mast cells on incubation with increasing concentrations of peptide alone” value was “did not result in histamine secretion”. For the same molecule, in data set [1] (peptide alone at 400-600 μg/ml), the “basal level of histamine secretion compared to control cells” value is listed as “minor inhibition of the basal level of histamine secretion”. In data set [2], the “IC50, compound 48/80 induced histamine secretion” value turned out to be 160 µg/mL (≈ 58.1 µM) and the “maximal inhibition of compound 48/80 induced histamine secretion” value stood at 87%. Besides, the “Inhibitor (extent of inhibition of histamine secretion from mast cells)” value in data set [2] (setting [4]) is reported as “+++ (+++ Potent inhibitor (≧80% inhibition))”.

In the case of AAVALLPAVLLALLAAKNNLKECGLY [WALL004], the “histamine secretion from mast cells, peptide alone” value in data set [1] (especially at a peptide concentration exceeding 200 μg/ml) is “moderate histamine secretion”.

With AAVALLPAVLLALLAPKENLKDCGLF [Peptide 5], the “Secretagogue (histamine secretion following incubation of mast cell with different concentrations of each peptide)” value in data set [1] (Table 1, peptide alone) is on record as “−”.

On to AAVALLPAVLLALLAPKNNLKDCGLF [Peptide 5m], for which the “Secretagogue (histamine secretion following incubation of mast cell with different concentrations of each peptide)” value in data set [1] (Table 1, peptide alone) is “+”. In addition, in data set [1], the “histamine secretion from mast cells on incubation with increasing concentrations of peptide alone” value is “induced histamine secretion from mast cells in a concentration dependent manner”.

AAVALLPAVLLALLAPKNNLKESGLY [Peptide 25]: the “Secretagogue (histamine secretion following incubation of mast cell with different concentrations of each peptide)” value in data set [1] (Table 1, peptide alone) is recorded as “+”. For the same molecule, the “histamine secretion from mast cells on incubation with increasing concentrations of peptide alone” value in data set [1] is listed as “induced histamine secretion from mast cells in a concentration dependent manner”.

Regarding AAVALLPAVLLALLAPKQNLKECGLY [WALL006], in data set [1] (Table 9, peptide alone), the “Secretagogue (histamine secretion following incubation of mast cell with different concentrations of each peptide)” value is listed as “−”. In addition, in data set [1], the “histamine secretion from mast cells on incubation with increasing concentrations of peptide alone” value is given as “did not result in histamine secretion”. For the same molecule, the “IC50, compound 48/80 induced histamine secretion” value in data set [2] was found to be 560 µg/mL.

For the molecule AAVALLPAVLLALLAPLKDCGLF [Peptide 21], the “histamine secretion from mast cells, peptide alone” value in data set [1] (at higher doses of 400 and 600 μg/ml) was “induced some histamine secretion”.

As to AAVALLPAVLLALLAPLKECGLY [Peptide 20], in data set [1] (Table 1, peptide alone), the “Secretagogue (histamine secretion following incubation of mast cell with different concentrations of each peptide)” value was “−”. Also, the “histamine secretion from mast cells on incubation with increasing concentrations of peptide alone” value in data set [1] is listed as “did not induce histamine secretion”.

On to AAVALLPAVLLALLAPYLGCEKLNNK [WALL023], for which the “histamine secretion from mast cells, peptide alone” value in data set [1] (600 μg/ml peptide) was “did not result in histamine secretion”. The “Secretagogue (histamine secretion following incubation of mast cell with different concentrations of each peptide)” value in data set [1] (Table 9, peptide alone) was “−”.

Consider “KAAVALLPAVLLALLAPKNNLKDCGLF [Peptide 12]”, for which, in data set [1] (Table 1, peptide alone), the “Secretagogue (histamine secretion following incubation of mast cell with different concentrations of each peptide)” value was “+”. In addition, the “histamine secretion from mast cells on incubation with increasing concentrations of peptide alone” value in data set [1] was “induced histamine secretion from mast cells in a concentration dependent manner”.

For “KAAVALLPAVLLALLAPKNNLKECGLY [Peptide 13]”, the “Secretagogue (histamine secretion following incubation of mast cell with different concentrations of each peptide)” value in data set [1] (Table 1, peptide alone) is “+”. In data set [1], the “histamine secretion from mast cells on incubation with increasing concentrations of peptide alone” value is “induced histamine secretion from mast cells in a concentration dependent manner”.

Regarding RQPKIWFPNRRKPWKKKENLKDCGLF [Peptide 6], the “histamine secretion from mast cells on incubation with increasing concentrations of peptide alone” value in data set [1] is reported as “induced histamine secretion from mast cells in a concentration dependent manner”.

RQPKIWFPNRRKPWKKKNNLKECGLY [Peptide 3]: in data set [1], the “histamine secretion from mast cells on incubation with increasing concentrations of peptide alone” value was “induced histamine secretion from mast cells in a concentration dependent manner”.

On to VTVLALGALAGVGVGKENLKDCGLF [Peptide 4], for which the “stimulatory effect on histamine secretion” value in data set [1] (peptide alone, concentration range of up to 400 p.g/ml (FIG. 1A)) is “hardly any stimulatory effect”.
